Patent US11117901B2, “Substituted pyrazolo[4,3-h]quinazolines as choline kinase inhibitors” (NERVIANO MEDICAL SCIENCES S.R.L., priority 2017, dated 2021)

Experiments:
Δ49N-hChoKα = molecular target: T1, Δ49N-hChoKα (Homo sapiens, UniProt P35790); test: Biochemical kinase inhibition assay (Kinase-Glo luminescent) on Δ49N-hChoKα; conditions: recombinant Δ49N-hChoKα 2.2 nM, ATP 5 μM, choline 5 μM, 60 min rt; read-out: ChoKα IC50
T1 construct: cDNA fragment 362-1534, corresponding to aminoacids 50 457; GST (N, cleaved yes); PreScission Protease recognition site (N); made in house; host or cells: Escherichia coli BL21pLysS (DE3)
Description: (§1) HumanΔ49ChoKα ([…]Δ49N-hChoKα) cDNA fragment 362-1534, corresponding to aminoacids 50 457 (J. Mol. Biol. 2006, 364, 136-151), and hChoKβ full length (FL), corresponding to aminoacids 2-395 ((PLoS ONE 2009, 4, e7819), were amplified by PCR from human library and cloned, inserting upstream a Prescission Protease recognition site, in pDonor 221 vector, using the Gateway Technology® (Invitrogen). After sequence control, LR reaction was performed in the final expression pGEX 2Tg vector. Both the proteins were expressed in Escherichia coli BL21pLysS (DE3) strain in auto-induction (Kessler) medium in the presence of […] carbenicillin at 25° C. for 16 h. Cells were harvested by centrifugation, the pellet was re-suspended in Lysis buffer (50 mM Tris-HCl pH 7.8, 150 mM NaCl, 10% glycerol, 0.2% CHAPS, 20 mM DTT, Protease Inhibitor Cocktail Tablets from Roche Biochemicals) and lysed by Gaulin homogenizer (Niro Soavi). The lysate was cleared by centrifugation. The supernatant was added to GSH resin and let flow by gravity. The GSH resin was washed with 5 column volume (CV) of cold wash buffer (50 mM Tris-HCl pH 7.8, 150 mM NaCl, 10% glycerol), then with 10 CV of the same buffer containing 2 mM of DTT. Both GST-Δ49N-hChoKα and hChoKβ were subjected to on-column cleavage of the GST tag with Prescission Protease overnight. The eluted cleaved proteins were further purified by ion exchange (ResQ 6 mL chromatography column from GE healthcare) with a gradient from 50 to 500 mM NaCl in 30 CV. The fractions containing […]Δ49N-hChoKα or hChoKβ were pooled, concentrated and gel filtered on a Superdex200 16/60 (GE Healthcare). The final protein concentration was estimated using the Bradford assay. All the samples purified were resolved by SDS-PAGE.
(§2) Biochemical Kinase inhibition Assay on Δ49N-hChoKα and hChoKβFL
(§3) The biochemical activity of compounds against Δ49N-ChoKα and ChoK3 FL were determined using the Kinase-Glo™ Luminescent Kinase Assay (Promega cat. V6711). The assay is based on incubation of the recombinant Δ49N-hChoKα and hChoKβ FL produced in house, 2.2 nM and 30 nM, respectively, with the specific substrates, choline (Sigma-Aldrich-C7017) and ATP, followed by quantification, at the end of reaction time, of the residual not reacted ATP.
(§4) Compounds were 3-fold serially diluted from 10 to 0.0005 μM, then incubated for 60 minutes at room temperature in the presence of ATP 5 μM, choline (5 μM for ChoKα and 20 μM for ChoKβ) and enzyme in a final volume of 19 μL of kinase buffer (50 mM Hepes pH 7.5, 10 mM MgCl2, 1 mM DTT, 3 μM Na3VO4 and 0.2 mg/mL BSA). The final concentration of DMSO was 1%. The assay was run in a robotized format on 384-well plates (Perkin Elmer cat. #6005301).
(§5) At the end of the incubation, an amount of 19 μL of KinaseGlo Reagent was added to each well to stop the reaction and after 30 minutes the luminescence signal was measured using ViewLux reader (Perkin Elmer).
(§6) All information about plate dilution, distribution and raw data of inhibition are tracked via barcode reading and stored in an Oracle DB. The data per each molecule are analyzed by an internally customized version of the SW package “Assay Explorer” which provides sigmoidal fittings of the ten-dilution curves for IC50 determination using a 4 parameter logistic equation: y=bottom+(top−bottom)/(1+10^((log IC50−x)*slope)) where x is the logarithm of the inhibitor concentration, y is the response; y starts at bottom and goes to top with a sigmoid shape.

hChoKβ FL = molecular target: T2, hChoKβ FL (Homo sapiens, UniProt Q9Y259); test: Biochemical kinase inhibition assay (Kinase-Glo luminescent) on hChoKβ FL; conditions: recombinant hChoKβ FL 30 nM, ATP 5 μM, choline 20 μM, 60 min rt; read-out: ChoKβ IC50
T2 construct: hChoKβ full length (FL), corresponding to aminoacids 2-395; GST (N, cleaved yes); PreScission Protease recognition site (N); made in house; host or cells: Escherichia coli BL21pLysS (DE3)
Description: as §1, §2, §3, §4, §5, §6

T1 sequence (P35790 50-439 isoform P35790-2): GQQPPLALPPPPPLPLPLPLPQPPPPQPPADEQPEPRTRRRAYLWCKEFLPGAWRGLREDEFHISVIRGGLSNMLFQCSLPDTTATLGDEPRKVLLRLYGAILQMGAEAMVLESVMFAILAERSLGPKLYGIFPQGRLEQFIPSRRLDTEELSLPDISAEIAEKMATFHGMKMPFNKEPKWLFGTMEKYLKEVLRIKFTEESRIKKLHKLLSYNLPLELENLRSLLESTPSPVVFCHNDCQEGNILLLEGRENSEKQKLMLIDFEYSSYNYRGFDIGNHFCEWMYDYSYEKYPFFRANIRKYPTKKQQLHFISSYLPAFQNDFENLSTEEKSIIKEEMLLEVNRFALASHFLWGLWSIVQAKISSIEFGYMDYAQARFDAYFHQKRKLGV
T2 sequence (Q9Y259 2-395): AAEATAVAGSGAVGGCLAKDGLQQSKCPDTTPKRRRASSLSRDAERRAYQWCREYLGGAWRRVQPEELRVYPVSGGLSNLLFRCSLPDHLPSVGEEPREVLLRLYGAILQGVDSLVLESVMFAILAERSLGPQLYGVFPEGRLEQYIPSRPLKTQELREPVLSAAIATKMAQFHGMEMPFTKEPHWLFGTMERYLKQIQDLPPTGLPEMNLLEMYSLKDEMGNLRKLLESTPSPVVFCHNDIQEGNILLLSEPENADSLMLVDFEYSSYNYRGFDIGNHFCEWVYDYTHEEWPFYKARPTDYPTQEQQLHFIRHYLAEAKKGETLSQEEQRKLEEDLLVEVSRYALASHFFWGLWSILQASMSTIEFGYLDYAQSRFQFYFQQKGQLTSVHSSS

SMILES	IC50 (Δ49N-hChoKα)	IC50 (hChoKβ FL)
CC1(C)Cc2cnc(N)nc2-c2[nH]nc(C(=O)Nc3cccc(CN4CCC(N5CCCCC5)CC4)c3)c21 [compound 110]	135 nM	2850 nM
CC1(C)Cc2cnc(N)nc2-c2[nH]nc(C(=O)Nc3ncc(CC(=O)NC4CCCCC4)s3)c21 [compound 73]	138 nM	604 nM
CC1(C)Cc2cnc(N)nc2-c2[nH]nc(C(=O)Nc3nc(CC(=O)N4CCC(N5CCCC(F)(F)C5)CC4)cs3)c21 [compound 222]	10 nM	1650 nM
CN(C(=O)c1nn(C)c2c1C(C)(C)Cc1cnc(N)nc1-2)c1nc(CC(=O)N2CCC(N3CCCCC3)CC2)cs1 [compound 124]	187 nM	> 10000 nM
CC1(C)Cc2cnc(N)nc2-c2[nH]nc(C(=O)Nc3ncc[nH]3)c21 [compound 144]	546 nM	688 nM
Cc1csc(NC(=O)c2n[nH]c3c2C(C)(C)Cc2cnc(N)nc2-3)n1 [compound 32]	66 nM	1090 nM
CC1(C)Cc2cnc(N)nc2-c2[nH]nc(C(=O)Nc3ccc(C(=O)NC4CCCCC4)cc3)c21 [compound 16]	75 nM	63 nM
CC1(C)Cc2cnc(N)nc2-c2[nH]nc(C(=O)Nc3ccc(C(=O)N4CCC(N5CCOCC5)CC4)cc3)c21 [compound 50]	215 nM	716 nM
CC1(C)Cc2cnc(N)nc2-c2[nH]nc(C(=O)Nc3ncc(CC(=O)N4CCC(N5CCCCC5)CC4)s3)c21 [compound 75]	47 nM	1750 nM
Cc1csc(NC(=O)c2nn(CCO)c3c2C(C)(C)Cc2cnc(N)nc2-3)n1 [compound 182]	458 nM	> 10000 nM
CN(C)[C@H]1CCN(C(=O)Cc2csc(NC(=O)c3n[nH]c4c3C(C)(C)Cc3cnc(N)nc3-4)n2)C1 [compound 93]	12 nM	761 nM
CC1(C)Cc2cnc(N)nc2-c2[nH]nc(C(=O)Nc3cccc(CC(=O)N4CCC(N5CCCCC5)CC4)c3)c21 [compound 120]	19 nM	913 nM
CC1(C)Cc2cnc(N)nc2-c2[nH]nc(C(=O)NC3CCCCC3)c21 [compound 34]	748 nM	> 10000 nM
CC1(C)Cc2cnc(N)nc2-c2[nH]nc(C(=O)N3CCC(N4CCCCC4)CC3)c21 [compound 38]	682 nM	> 10000 nM
CC1(C)Cc2cnc(N)nc2-c2[nH]nc(C(=O)Nc3nc(CNC4CCN(C5CCCCC5)CC4)cs3)c21 [compound 156]	3 nM	249 nM
CC1CCN(C2CCN(C(=O)Cc3csc(NC(=O)c4n[nH]c5c4CC(C)(C)c4cnc(N)nc4-5)n3)CC2)CC1 [compound 231]	3 nM	104 nM
CC1(C)Cc2cnc(N)nc2-c2[nH]nc(C(=O)Nc3nc(COC4CCN(C5CCC(F)(F)CC5)CC4)cs3)c21 [compound 189]	31 nM	1560 nM
CC1CCN(C2CCN(C(=O)Cc3csc(NC(=O)c4c5c(nn4C)-c4nc(N)ncc4CC5(C)C)n3)CC2)CC1 [compound 211]	108 nM	> 10000 nM
COc1ccc2nc(NC(=O)c3n[nH]c4c3C(C)(C)Cc3cnc(N)nc3-4)sc2c1 [compound 63]	26 nM	447 nM
CC1(C)Cc2c(C(=O)Nc3nc(COC4CCN(C5CCCCCC5)CC4)cs3)n[nH]c2-c2nc(N)ncc21 [compound 232]	8 nM	146 nM
